According to US8648111B2, “N1-2-thiophene-2-ylethyl-N2-substituted biguanide derivate, preparation method thereof, and pharmaceutical composition containing the same as active ingredients” (Hanall Biopharma Co., Ltd., priority 2008, dated 2014):

Key:
Type in all cases: cell-based
[1] = system: HepG2 cells; assay: Measurement of gluconeogenesis inhibitory ability (14C-lactate, glucose formed in cells); conditions: 100 uM compound, 24 hours, HepG2, lower value = stronger gluconeogenesis inhibition
Description: (§1) 2 mM metformin was used as a comparative compound for each of the plates (control group).
HepG2 cells (ATCC: American Type Culture Collection) were cultured in 10% serum-containing high glucose media, transferred to no serum-containing low glucose media (DMEM (Gibco), FBS (Gibco)), and then treated with 100 μM of each of the compounds for 24 hours. Then, the cells were treated with 0.5 μCi ^14C-lactate (Amersham Pharmacia) and 10 mM L-lactate (Sigma), and cultured for 4 hours. After cultivation, the media were removed therefrom, and the cells were washed with PBS, treated with 0.1N NaOH and kept at room temperature for 1 hour. Then, the cells were neutralized with 1N HCl, and the content of glucose formed in the cells was measured with a liquid scintillation counter.
A lower measurement value means an increased gluconeogenesis inhibitory ability.

[2] = system: HepG2 cells; assay: Measurement of cholesterol synthesis inhibitory ability (cholesterol content in cell lysates, Amplex red); conditions: 24 hours, HepG2, lower value = stronger cholesterol synthesis inhibition; for Cholesterol (100 uM) Aver.: 100 uM compound; for Cholesterol (500 uM) Aver.: 500 uM compound
Description: as §1
A cholesterol synthesis inhibitory ability, which is an important function of AMPK (AMP-activated protein kinase), was measured using HepG2 cells (ATCC: American Type Culture Collection) as a hepatic cell model according to the following procedure.
The hepatic cell model HepG2 cells were cultured in 1% serum-containing media (DMEM (Gibco), FBS (Gibco)) for 24 hours, and then treated with 100 μM or 500 μM of each of the compounds prepared in Examples for 24 hours. Then, the cells were disrupted with a lysis solution (0.1 M potassium phosphate, pH 7.4, 0.05 M NaCl, 5 mM cholic acid, 0.1% Triton X-100 (Sigma)). To the disrupted cells was added the same volume of a reaction solution (2 U/mL of a cholesterol oxidizing agent, 2 U/mL of a peroxidase, 0.2 U/mL of a cholesterol esterase, and 300 μM of Amplex red as a fluorescent factor (Molecular Probe)), which was allowed to react at 37° C. for 30 minutes. After completion of the reaction, the content of cholesterol formed in the cell lysates was measured at a wavelength of 560/590 nm (ex/em) using a fluorescence microscope.
A lower measurement value means an increased cholesterol synthesis inhibitory ability.

[3] = system: C2C12 cells; assay: Measurement of glucose absorption ability (3H-deoxy-glucose uptake with insulin); conditions: 100 uM compound with 1 μM insulin, 24 hours, differentiated C2C12, higher value = stronger, more than 200% counts as glucose absorption ability
Description: as §1
C2C12 cells (ATCC: American Type Culture Collection), a muscle cell model, were induced to differentiate into muscle cells in 2% bovine fetal serum-containing media (DMEM (Gibco), FBS (Gibco)) for 6 days. The C2C12 cells which differentiated into muscle cells were transferred to serum-free low glucose media (DMEM (Gibco), FBS (Gibco)), treated with 100 μM of each of the compounds, and then cultured with 1 μM of insulin for 24 hours. After cultivation, the cells were treated with 1 μCi ^3H-deoxy-glucose (Amersham Pharmacia) and 10 μM deoxy-glucose (Sigma) at 37° C. for 15 minutes. The media were removed therefrom, and the cells were washed twice with PBS (phosphate buffered saline). The washed cells were treated with 0.1N NaOH and neutralized with 1N HCl. The content of glucose absorbed into the cells was measured with a liquid scintillation counter.
A higher measurement value means a stronger ability to reduce insulin resistance.

[4] = system: HepG2 cells; assay: Measurement of triglyceride (triglyceride content in cell lysates, Amplex red); conditions: 24 hours, HepG2, lower value = stronger triglyceride synthesis inhibition; for Triglyceride (100 uM) Aver.: 100 uM compound; for Triglyceride (500 uM) Aver.: 500 uM compound
Description: as §1
HepG2 cells (ATCC: American Type Culture Collection) were cultured in 1% serum-containing media (DMEM (Gibco), FBS (Gibco)) for 24 hours, and then treated with 100 μM or 500 μM of each of the compounds prepared in Examples for 24 hours. Then, the cells were disrupted with a lysis solution (0.1 M potassium phosphate, pH 7.4, 0.05 M NaCl, 5 mM cholic acid, 0.1% Triton X-100). […] After completion of the reaction, the content of triglyceride formed in the cell lysates was measured at a wavelength of 560/590 nm (ex/em) using a fluorescence microscope.
A lower measurement value means an increased triglyceride synthesis inhibitory ability.

Structure (SMILES) | Gluconeogenesis inhibition (100 uM) Aver. [1] | Cholesterol (100 uM) Aver. [2] | Cholesterol (500 uM) Aver. [2] | Glucose absorption (100 uM) Aver. [3] [%] | Triglyceride (100 uM) Aver. [4] | Triglyceride (500 uM) Aver. [4] | Gluconeogenesis inhibition (100 uM) Aver. ([1]; hydrochloride, 100 µM) | Cholesterol (100 uM) Aver. ([2]; hydrochloride) | Cholesterol (500 uM) Aver. ([2]; hydrochloride) | Glucose absorption (100 uM) Aver. ([3]; hydrochloride) [%] | Triglyceride (100 uM) Aver. ([4]; hydrochloride) | Triglyceride (500 uM) Aver. ([4]; hydrochloride) | Gluconeogenesis inhibition (100 uM) Aver. ([1]; 100 µM)
Cc1ccc(N=C(NCCc2cccs2)NC(=N)N)cc1.Cl [Example 19, N1-2-(thiophen-2-ylethyl)-N2-(4-methylphenyl) biguanide hydrochloride] | 74.32 | 52.9 | 29.6 | 89.16 | 67.7 | 46.4 |  |  |  |  |  |  | 
Cl.N=C(N)NC(=Nc1ccccc1)NCCc1cccs1 [Example 20, N1-2-(thiophen-2-ylethyl)-N2-phenyl biguanide hydrochloride] | 87.36 | 45.7 | 18.3 | 125.4 | 67.5 | 57.6 |  |  |  |  |  |  | 
Cl.N=C(N)NC(=NC1CCCC1)NCCc1cccs1 [Example 21, N1-2-(thiophen-2-ylethyl)-N2-cyclopentyl biguanide hydrochloride] | 97.66 | 68.2 | 45.8 | 174.8 | 80.5 | 85.6 |  |  |  |  |  |  | 
Cl.N=C(N)NC(=NC1CCCCCC1)NCCc1cccs1 [Example 22, N1-2-(thiophen-2-ylethyl)-N2-cycloheptyl biguanide hydrochloride] | 96.63 | 69.8 | 44.4 | 173.8 | 77.8 | 78.9 |  |  |  |  |  |  | 
CCCCCN=C(NCCc1cccs1)NC(=N)N.Cl [Example 23, N1-2-(thiophen-2-ylethyl)-N2-pentyl biguanide hydrochloride] | 2.96 | 11.05 | 15.66 | 0.00 | 13.83 | 17.16 |  |  |  |  |  |  | 
COCCN=C(NCCc1cccs1)NC(=N)N.Cl [Example 24, N1-2-(thiophen-2-ylethyl)-N2-methoxyethyl biguanide hydrochloride] | 78.89 | 92.58 | 75.75 | 114.91 | 77.91 | 71.93 |  |  |  |  |  |  | 
CCCCN=C(NCCc1cccs1)NC(=N)N.Cl [Example 25, N1-2-(thiophen-2-ylethyl)-N2-butyl biguanide hydrochloride] |  |  |  |  |  |  | 0.00 | 32.66 | 19.87 | 2.76 | 19.21 | 17.02 | 
CCCCN=C(NCCc1cccs1)NC(=N)N.Cl [Example 26, N1-2-(thiophen-2-ylethyl)-N2-butyl biguanide hydrochloride (isomer)] |  | 43.20 | 13.28 | 18.34 | 47.59 | 30.67 |  |  |  |  |  |  | 81.70
Cc1cccc(N=C(NCCc2cccs2)NC(=N)N)c1.Cl [Example 27, N1-2-(thiophen-2-ylethyl)-N2-(3-methylphenyl) biguanide hydrochloride] | 56.42 | 33.26 | 28.82 | 12.91 | 46.45 | 20.64 |  |  |  |  |  |  | 
CC(C)(C)c1ccc(N=C(NCCc2cccs2)NC(=N)N)cc1.Cl [Example 28, N1-2-(thiophen-2-ylethyl)-N2-(4-t-butylphenyl) biguanide hydrochloride] | 2.57 | 27.49 | 26.60 | 4.29 | 15.55 | 15.21 |  |  |  |  |  |  | 
CCCCCCc1ccc(N=C(NCCc2cccs2)NC(=N)N)cc1.Cl [Example 29, N1-2-(thiophen-2-ylethyl)-N2-(4-hexylphenyl) biguanide hydrochloride] | 1.26 | 30.10 | 119.39 | 3.96 | 8.04 | 42.57 |  |  |  |  |  |  | 
COc1ccc(N=C(NCCc2cccs2)NC(=N)N)cc1.Cl [Example 30, N1-2-(thiophen-2-ylethyl)-N2-(4-methoxyphenyl) biguanide hydrochloride (isomer)] |  | 73.64 | 26.15 | 148.42 | 91.91 | 48.42 |  |  |  |  |  |  | 105.18
COc1ccc(OC)c(N=C(NCCc2cccs2)NC(=N)N)c1.Cl [Example 31, N1-2-(thiophen-2-ylethyl)-N2-(2,5-dimethoxyphenyl) biguanide hydrochloride] |  |  |  |  |  |  | 96.29 | 75.67 | 49.39 | 168.20 | 81.74 | 57.32 | 
COc1cc(N=C(NCCc2cccs2)NC(=N)N)cc(OC)c1.Cl [Example 32, N1-2-(thiophen-2-ylethyl)-N2-(3,5-dimethoxyphenyl) biguanide hydrochloride] | 152.19 | 48.02 | 26.70 | 11.68 | 70.80 | 28.47 |  |  |  |  |  |  | 
Cl.N=C(N)NC(=Nc1ccc(Br)cc1)NCCc1cccs1 [Example 33, N1-2-(thiophen-2-ylethyl)-N2-(4-bromophenyl) biguanide hydrochloride] | 17.03 | 24.52 | 31.66 | 14.24 | 29.12 | 27.48 |  |  |  |  |  |  | 
Cl.N=C(N)NC(=Nc1cccc(Br)c1)NCCc1cccs1 [Example 34, N1-2-(thiophen-2-ylethyl)-N2-(3-bromophenyl) biguanide hydrochloride] | 4.96 | 26.00 | 32.53 | 6.05 | 26.57 | 19.49 |  |  |  |  |  |  | 
